The assay has as its target T1, Leukotriene, Cysteinyl CysLT1 (Cavia porcellus, UniProt Q2NNR5).
T1 construct: from tissue; host or cells: guinea pig lung membrane
T1 sequence (Q2NNR5 1-340): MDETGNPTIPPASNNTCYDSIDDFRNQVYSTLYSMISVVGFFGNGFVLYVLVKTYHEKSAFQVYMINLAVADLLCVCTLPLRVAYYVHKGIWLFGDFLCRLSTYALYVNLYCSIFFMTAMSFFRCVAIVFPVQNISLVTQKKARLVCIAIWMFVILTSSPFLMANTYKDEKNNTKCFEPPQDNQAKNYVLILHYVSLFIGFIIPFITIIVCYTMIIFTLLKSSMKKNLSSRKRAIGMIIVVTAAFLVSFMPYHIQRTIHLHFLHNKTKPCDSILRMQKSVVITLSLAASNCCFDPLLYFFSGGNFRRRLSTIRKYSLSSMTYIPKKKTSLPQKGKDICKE
Briefly: receptor radio-ligand-binding assay (Tritiated LTD4 as the ligand), Guinea pig lung membrane. The conditions noted are these: 0.5 h, 0.2 nM 3H LTD4, Guinea pig lung membrane; for inhibition at 0.001 µM: 1 nM test compound, read-out: % Inhbition (in nM) 1; for inhibition at 0.003 µM: 3 nM test compound, read-out: % Inhbition (in nM) 3; for inhibition at 0.01 µM: 10 nM test compound, read-out: % Inhbition (in nM) 10. As to the method: The primary in-vitro biological screening for the compounds carried-out involving receptor radio-ligand-binding assay (Tritiated LTD4 as the ligand) by known methods described in literature [a). Mong et al. European Journal of Pharmacology (102); 1984 1-11b). Jones et al; Journal of Physiology & Pharmacology (73); 1994, 191-201 c). MDS Pharma Services: 250460 Leukotriene, Cysteinyl CysLT1]. Accordingly, Guinea pig lung membrane (100 ug) is incubated with 0.2 nM 3H LTD4 in presence of Reference Standard/Test item/Vehicle Control. Non Specific Binding is determined by incubating the membrane with 0.2 nM 3H LTD4 in presence of 1 uM of unlabeled LTD4. The samples are incubated at 26° C. for 30 minutes and are vacuum filtered on a membrane to separate the bound and free radioligand. The membrane is counted in a liquid scintillation counter to calculate the bound radioactivity. Specific Binding in Vehicle treated and Reference Standard/Test item treated set is compared to evaluate the % Inhibition values. Some of the compounds have shown >50% inhibition in the presence of ≦3 nano-molar concentration of the compounds of present invention as shown in the following table.

Each structure is given as a SMILES string.

Regarding `CCN(CC)C(=O)c1ccccc1CCC(NC(=O)c1ccccc1C(=O)O)c1cccc(/C=C/c2ccc3ccc(Cl)cc3n2)c1` (stereo not drawn) [Ia.38, N-[1-{3-[(E)-2-(7-Chloro-quinolin-2-yl)-vinyl]-phenyl}-3-(2-diethylcarbamoyl-phenyl)-propyl]-phthalamic acid], the inhibition at 0.001 µM was 0.3%, the inhibition at 0.003 µM turned out to be 51% and the inhibition at 0.01 µM amounted to 69%.

Regarding `O=C(O)c1ccccc1C(=O)NC(CCc1ccccc1C(=O)N1CCCC1)c1cccc(/C=C/c2ccc3ccc(Cl)cc3n2)c1` (stereo not drawn) [Ia.73, N-{1-{3-[(E)-2-(7-Chloro-quinolin-2-yl)-vinyl]-phenyl}-3-[2-(pyrrolidine-1-carbonyl)-phenyl]-propyl}-phthalamic acid], the inhibition at 0.001 µM came to 40%, the inhibition at 0.003 µM is 67% and the inhibition at 0.01 µM stood at 72%.

On to `O=C(O)c1cc(Cl)ccc1CCC1(c2cccc(/C=C/c3ccc4ccc(Cl)cc4n3)c2)OCCO1` [Ib.111], for which the inhibition at 0.001 µM was found to be 65%, the inhibition at 0.003 µM was 84% and the inhibition at 0.01 µM is 91%.

For `COc1ccc(CCC2(c3cccc(/C=C/c4ccc5ccc(Cl)cc5n4)c3)OCCO2)c(C(=O)O)c1` [Ib.67], the inhibition at 0.001 µM worked out at 72%, the inhibition at 0.003 µM worked out at 86% and the inhibition at 0.01 µM worked out at 89%.

On to `O=C(O)c1ccccc1OCC(OCCc1cccs1)c1cccc(/C=C/c2ccc3ccc(Cl)cc3n2)c1` (stereo not drawn) [Ia.143, 2-[2-{3-[(E)-2-(7-Chloro-quinolin-2-yl)-vinyl]-phenyl}-2-(2-thiophen-2-yl-ethoxy)-ethoxy]-benzoic acid], for which the inhibition at 0.001 µM was found to be 32%, the inhibition at 0.003 µM is 56% and the inhibition at 0.01 µM is 74%.

Consider `CCOC(COc1ccc(OC)cc1C(=O)O)c1cccc(/C=C/c2nc3ccccc3s2)c1` (stereo not drawn) [Ia.192, 2-{2-[3-((E)-2-Benzothiazol-2-yl-vinyl)-phenyl]-2-ethoxy-ethoxy}-5-methoxy-benzoic acid], for which the inhibition at 0.001 µM turned out to be 38%, the inhibition at 0.003 µM came out at 54% and the inhibition at 0.01 µM came to 74%.

On to `COC(=O)c1ccccc1CCC(NC(=O)C1=C(C(=O)O)CCC1)c1cccc(/C=C/c2ccc3ccc(Cl)cc3n2)c1` (stereo not drawn) [Ia.80, 2-(3-[(2-Carboxy-cyclopent-1-enecarbonyl)-amino]-3-{3-[(E)-2-(7-chloro-quinolin-2-yl)-vinyl]-phenyl}-propyl)-benzoic acid methyl ester], for which the inhibition at 0.001 µM was 43%, the inhibition at 0.003 µM turned out to be 64% and the inhibition at 0.01 µM was 65%.

For `CC1(C)COC(CCc2ccccc2C(=O)O)(c2cccc(/C=C/c3ccc4ccc(Cl)cc4n3)c2)OC1` [Ib.26], the inhibition at 0.001 µM turned out to be 34%, the inhibition at 0.003 µM came out at 53% and the inhibition at 0.01 µM is 56%.

For `CCOC(CSc1ncccc1C(=O)O)c1cccc(/C=C/c2ccc3ccc(Cl)cc3n2)c1` (stereo not drawn) [Ia.205, 2-(2-{3-[(E)-2-(7-Chloro-quinolin-2-yl)-vinyl]-phenyl}-2-ethoxy-ethylsulfanyl)-nicotinic acid], the inhibition at 0.001 µM was 46%, the inhibition at 0.003 µM amounted to 49% and the inhibition at 0.01 µM was 70%.

Consider `COc1cc(C(=O)O)c(CCC2(c3cccc(/C=C/c4ccc5ccc(Cl)cc5n4)c3)OCCO2)c(OC)c1OC` [Ib.113], for which the inhibition at 0.001 µM was 48%, the inhibition at 0.003 µM turned out to be 68% and the inhibition at 0.01 µM came out at 85%.

For `C#CCOC(COc1ccccc1C(=O)O)c1cccc(/C=C/c2ccc3ccc(Cl)cc3n2)c1` (stereo not drawn) [Ia.127, 2-(2-{3-[(E)-2-(7-Chloro-quinolin-2-yl)-vinyl]-phenyl}-2-prop-2-ynyloxy-ethoxy)-benzoic acid], the inhibition at 0.001 µM is 50%, the inhibition at 0.003 µM was determined as 69% and the inhibition at 0.01 µM stood at 73%.

The record behind these values is patent US9102665B2, “Cysteinyl leukotriene antagonists” (Sun Pharma Advanced Research Company Ltd., priority 2011, dated 2015).
